Assay results from article PMC6950293, “A Rapid Extraction Method Combined with a Monoclonal Antibody-Based Immunoassay for the Detection of Amatoxins” (Toxins, 2019).
≈ marks a conversion by molar mass, not a printed value. Like-named read-outs stand apart in the source and are kept apart here. *1 amine or outer side, *2 acyl side, *3 side chain or, on linkers, in order; H or OH if unused. Where a SMILES comes first, the peptide text is derived from it. Bridges are numbered along the chain shown (N, C = ends). [ ]: non-standard residue; d: D form. ξ: configuration not given here. Adda = CO[C@@H](Cc1ccccc1)[C@@H](C)/C=C(C)/C=C/[C@H](N[*:1])[C@H](C)C(=O)[*:2]; Trp(2-yl) = O=C([C@H](Cc1c([*:3])[nH]c2ccccc12)N[*:1])[*:2]; dAsp(3S-Me) = C[C@H](C(=O)[*:3])[C@@H](N[*:1])C(=O)[*:2]; ξTrp(2-yl) = O=C(C(Cc1c([*:3])[nH]c2ccccc12)N[*:1])[*:2]; Leu(4R-OH,5-OH) = C[C@](O)(CO)C[C@H](N)C(=O)O; d(γGlu) = O=C(O)[C@@H](CCC(=O)[*:2])N[*:1]; X1 = CC(O)(CO)CC(N[*:1])C(=O)[*:2]; cisHyp = O=C(O)[C@@H]1C[C@H](O)CN1; ξAsp(3ξ-OH) = NC(C(=O)O)C(O)C(=O)O; Hyp = O=C(O)[CH]1C[CH](O)CN1; NMeDha = C=C(NC)C(=O)O

Assays:
[1] = test system: mAb AMA9G3; assay: indirect competitive ELISA (cELISA) with mAb AMA9G3; format: binding, mouse; conditions: for working range of detection (estimated as IC30 to IC80): AMA9G3
[2] = test system: mAb AMA9C12; assay: indirect competitive ELISA (cELISA) with mAb AMA9C12; format: binding, mouse
[3] = test system: polyclonal antibody (pAb); conditions: Bühlmann Assay ref 15; cited from earlier work
[4] = test system: mAb; conditions: another mAb, different coupling strategy ref 16; cited from earlier work
[5] = test system: single chain variable fragment of a mAb; conditions: single chain variable fragment of a mAb ref 24; cited from earlier work
[6] = test system: humans; conditions: humans ref 7; cited from earlier work
[7] = test system: mice; conditions: mice ref 6; cited from earlier work
[8] = mAb AMA9G3, coating antigen PERI-AMA-BSA, triplicate
[9] = mAb AMA9G3, (IC50 α-AMA)/(IC50 test inhibitor) × 100
[10] = mAb AMA9C12, coating antigen PERI-AMA-BSA, triplicate
[11] = mAb AMA9C12, (IC50 α-AMA)/(IC50 test inhibitor) × 100

| Structure (SMILES) | IC50 [1, 8] [µg/mL] | Cross Reactivity (%) [1, 9] [%] | IC50 [2, 10] [µg/mL] | Cross Reactivity (%) [2, 11] [%] | Cross Reactivity (%) [3] | also measured |
| --- | --- | --- | --- | --- | --- | --- |
| N[C@H](C(=O)O)c1cc(=O)[nH]o1 [ibotenic acid] | >1 | <0.3 | >1 | <0.3 |  |  |
| CN(C)CCc1c[nH]c2cccc(OP(=O)(O)O)c12 [psilocybin] | >1 | <0.3 | >1 | <0.3 |  |  |
| CC1NC(=O)C2CC(O)CN2C(=O)C2CSc3[nH]c4ccccc4c3CC(NC1=O)C(=O)NC(CC(C)(O)CO)C(=O)NC(C(C)C)C(=O)NC(C(O)C(=O)O)C(=O)N2 (stereo not drawn) [phallacidin] (cyclo([ξAsp(3ξ-OH)]C[Hyp]A[ξTrp(2-yl)][X1]V); thioether 2-5; configuration not given here) | >1 | <0.3 | >1 | <0.3 | Not detected |  |
| C=C1C(=O)N[C@H](C)C(=O)N[C@@H](CC(C)C)C(=O)N[C@@H](C(=O)O)[C@H](C)C(=O)N[C@@H](CCCNC(=N)N)C(=O)N[C@@H](/C=C/C(C)=C/[C@H](C)[C@H](Cc2ccccc2)OC)[C@H](C)C(=O)N[C@@H](C(=O)O)CCC(=O)N1C [microcystin-LR] (R[Adda][d(γGlu)][NMeDha][dA]L[dAsp(3S-Me)]-OH; lactam N-7) |  |  |  |  |  | Cross Reactivity (%) [1]: <0.3%; IC50 [1]: >1 µg/mL; Cross Reactivity (%) [2]: <0.3%; IC50 [2]: >1 µg/mL |
| CC[C@H](C)[C@@H]1NC(=O)CNC(=O)[C@@H]2Cc3c([nH]c4cc(O)ccc34)[S+]([O-])C[C@H](NC(=O)CNC1=O)C(=O)N[C@@H](CC(=O)O)C(=O)N1CC(O)C[C@H]1C(=O)N[C@@H]([C@@H](C)[C@@H](O)CO)C(=O)N2 (stereo partly drawn) [β-amanitin] | 0.0242 ± 0.0062 (≈ 0.0263 µM) | 6.5 | >1 | <0.3 | 0.1% | IC50 [4]: 0.097 µg/mL (≈ 0.105 µM); working range of detection (estimated as IC30 to IC80) [1]: 0.0036 to 0.1291 µg/mL; competitive inhibition / binding (in words) ([1]; mAb AMA9G3): competitively inhibited; IC50 ([1]; mAb AMA9G3, coating antigen PERI-AMA-BSA, triplicate, listed as β-AMA): 0.024 µg/mL (≈ 0.0261 µM); competitive inhibition / binding (in words) ([2]; mAb AMA9C12): no reduction in signal response; IC50 [5]: 0.115 µg/mL (≈ 0.125 µM) |
| CC[C@H](C)[C@@H]1NC(=O)CNC(=O)[C@@H]2Cc3c([nH]c4cc(O)ccc34)[S@+]([O-])C[C@H](NC(=O)CNC1=O)C(=O)N[C@@H](CC(N)=O)C(=O)N1C[C@H](O)C[C@H]1C(=O)N[C@@H]([C@@H](C)[C@@H](O)CO)C(=O)N2 [α-amanitin] | 0.00157 ± 7e-05 (≈ 0.00171 µM) | 100 | 0.00266 ± 0.00018 (≈ 0.00289 µM) | 100 | 100% | dose severely toxic [6]: 0.3 mg/kg; LD50 [7]: 0.1 mg/kg; IC50 [4]: 0.066 µg/mL (≈ 0.0718 µM); working range of detection (estimated as IC30 to IC80) [1]: 0.0007 to 0.0031 µg/mL; competitive inhibition / binding (in words) ([1]; mAb AMA9G3): competitively inhibited; IC50 ([1]; mAb AMA9G3, coating antigen PERI-AMA-BSA, triplicate, listed as α-AMA): ≈ 1.6 ng mL^−1; competitive inhibition / binding (in words) ([2]; mAb AMA9C12): competitively inhibited; IC50 [5]: 0.077 µg/mL (≈ 0.0838 µM) |
| C/C=C1/C(=O)N[C@@H](C(=O)O)[C@H](C)C(=O)N[C@@H](CCCNC(=N)N)C(=O)N[C@@H](/C=C/C(C)=C/[C@H](C)[C@H](Cc2ccccc2)OC)[C@H](C)C(=O)N[C@@H](C(=O)O)CCC(=O)N1C [nodularin] |  |  |  |  |  | Cross Reactivity (%) [1]: <0.3%; IC50 [1]: >1 µg/mL; Cross Reactivity (%) [2]: <0.3%; IC50 [2]: >1 µg/mL |
| C[C@@H]1NC(=O)[C@H](C[C@@](C)(O)CO)NC(=O)[C@@H]2Cc3c([nH]c4ccccc34)SC[C@H](NC(=O)[C@@H]([C@H](C)O)NC1=O)C(=O)N1C[C@@H](O)C[C@H]1C(=O)N[C@@H](C)C(=O)N2 [phalloidin] (cyclo(A[dT]C[cisHyp]A[Trp(2-yl)][Leu(4R-OH,5-OH)]); thioether 3-6) | >1 | <0.3 | >1 | <0.3 | Not detected |  |
| NCc1cc(=O)[nH]o1 [muscimol] | >1 | <0.3 | >1 | <0.3 |  |  |
